Results: US10801035B2, “Plants having increased tolerance to herbicides” (BASF SE, priority 2011, dated 2020)

Experiments:
[1] = test system: Arabidopsis wildtype control plants; experiment: Arabidopsis growth inhibition in 48-well plates, wildtype control; assay type: in vivo, Arabidopsis thaliana; conditions: plant growth IC50 divided by that of wildtype plants
Experimental: Depending on the species, the plants are kept at 10-25° C. or 20-35° C. The test period extends over 3 weeks. During this time, the plants are tended and their response to the individual treatments is evaluated. Herbicide injury evaluations are taken at 2 and 3 weeks after treatment. Plant injury is rated on a scale of 0 to 9, 0 being no injury and 9 being complete death. Tolerance to coumarone-derivative herbicides can also be assessed in Arabidopsis. In this case transgenic Arabidopsis thaliana plants are assayed for improved tolerance to coumarone-derivative herbicides in 48-well plates. Seeds are surface sterilized by stirring for 5 min in ethanol+water (70+30 by volume), rinsing one time with ethanol+water (70+30 by volume) and two times with a sterile, deionized water. The seeds are resuspended in 0.1% agar dissolved in water (w/v). Four to five seeds per well are plated on solid nutrient medium consisting of half-strength Murashige Skoog nutrient solution, pH 5.8 (Murashige and Skoog (1962) Physiologia Plantarum 15: 473-497). […] Seven to ten days after seeding growth inhibition is evaluated by comparison to wild type plants. Tolerance factor is calculated by dividing the plant growth IC50 value of transgenic plants containing a HPPD and/or HST sequence by that of wildtype plants. […]

[2] = molecular target: T1, Hordeum HPPD variant L353M, P321R, V212I, L334E (Hordeum vulgare, UniProt O48604, L334E/L353M/P321R/V212I); experiment: HPPD activity assay, Hordeum HPPD mutant L353M, P321R, V212I, L334E; assay type: biochemical; conditions: normalized on wildtype
T1 construct: His6; made in house; host or cells: E. coli BL21 (DE3)
Experimental: (§1) HPPD produces homogentisic acid and CO2 from 4-hydroxyphenylpyruvate (4-HPP) and O2. The activity assay for HPPD is based on the analysis of homogentisic acid by reversed phase HPLC.
(§2) The assay mixture can contain 150 mM potassium phosphate buffer pH 7.0, 50 mM L-ascorbic acid, 1 μM FeSO4 and 7 μg of purified enzyme in a total volume of 1 ml. Inhibitors are dissolved in DMSO (dimethylsulfoxide) to a concentration of 20 mM or 0.5 mM, respectively. From this stock solution serial five-fold dilutions are prepared in DMSO, which are used in the assay. The respective inhibitor solution accounts for 1% of the assay volume. Thus, final inhibitor concentrations range from 200 μM to 2.5 nM or from 5 μM to 63 pM, respectively. After a preincubation of 30 min the reaction is started by adding 4-HPP to a final concentration of 0.1 mM. […]
(§3) Inhibitors are dissolved in DMSO (dimethylsulfoxide) to a concentration of 0.5 mM. […] IC50 values are calculated using non-linear regression.
(§4) Purified, mutant HPPD enzymes are obtained by the methods described above. […] Apparent michaelis constants (Km) and maximal reaction velocities (Vmax) are calculated by non-linear regression with the software GraphPad Prism 5 (GraphPad Software, La Jolla, USA) using a substrate inhibition model. […] Weighted means (by standard error) of Km and […] values are calculated from at least three independent experiments. […]

[3] = molecular target: T2, Hordeum HPPD variant L320Q (Hordeum vulgare, UniProt O48604, A164G/L320Q/R146V/R147D/R148G); experiment: HPPD activity assay, Hordeum HPPD mutant L320Q; assay type: biochemical; conditions: normalized on wildtype
T2 construct: His6; made in house; host or cells: E. coli BL21 (DE3)
Experimental: as §1, §2, §3, §4

[4] = molecular target: T3, Hordeum HPPD variant L353M, P321R, L320N (Hordeum vulgare, UniProt O48604, L320N/L353M/P321R); experiment: HPPD activity assay, Hordeum HPPD mutant L353M, P321R, L320N; assay type: biochemical; conditions: normalized on wildtype
T3 construct: His6; made in house; host or cells: E. coli BL21 (DE3)
Experimental: as §1, §2, §3, §4

Synechococcus HPPD = experiment: HPPD activity assay, Synechococcus HPPD; assay type: biochemical; conditions: normalized on Hordeum HPPD
Experimental: as §1
as §2, with “volume.” for “volume. Thus, final inhibitor concentrations range from 200 μM to 2.5 nM or from 5 μM to 63 pM, respectively. After a preincubation of 30 min the reaction is started by adding 4-HPP to a final concentration of 0.1 mM.”
Activities are normalized by setting the uninhibited enzyme activity to 100%. […] values are calculated using non-linear regression. […]
as §3
Using methods which are described in the above examples or well known in the art, purified, recombinant wildtype HPPD enzymes are characterized with respect to their kinetic properties and sensitivity towards HPPD inhibiting herbicides. Apparent michaelis constants (Km) and maximal reaction velocities (Vmax) are calculated by non-linear regression with the software GraphPad Prism 5 (GraphPad Software, La Jolla, USA) using a substrate inhibition model. […]

[5] = molecular target: T4, Arabidopsis HPPD variant M335H (Arabidopsis thaliana, UniProt P93836, M335H); experiment: HPPD activity assay, Arabidopsis HPPD mutant M335H; assay type: biochemical; conditions: normalized on wildtype
T4 construct: His6 (N); made in house; host or cells: E. coli BL21 (DE3)
Experimental: as §1, §2, §3, §4

T1 sequence (O48604 whole entry R146V/R147D/R148G/A164G/V212I/P321R/L334E/L353M): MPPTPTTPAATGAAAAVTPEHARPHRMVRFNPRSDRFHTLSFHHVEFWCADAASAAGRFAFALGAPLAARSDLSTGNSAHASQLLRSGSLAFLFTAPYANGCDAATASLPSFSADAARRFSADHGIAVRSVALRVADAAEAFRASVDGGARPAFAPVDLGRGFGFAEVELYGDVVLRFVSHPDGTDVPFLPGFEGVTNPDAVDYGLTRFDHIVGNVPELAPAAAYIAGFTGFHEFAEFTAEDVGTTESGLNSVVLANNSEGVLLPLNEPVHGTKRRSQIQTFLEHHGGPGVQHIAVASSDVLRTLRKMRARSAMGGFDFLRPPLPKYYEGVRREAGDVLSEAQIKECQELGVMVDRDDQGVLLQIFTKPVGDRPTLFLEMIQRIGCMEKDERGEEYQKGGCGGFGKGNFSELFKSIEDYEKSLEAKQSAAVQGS
T2 sequence (O48604 whole entry R146V/R147D/R148G/A164G/L320Q): as the sequence (O48604 whole entry R146V/R147D/R148G/A164G/V212I/P321R/L334E/L353M) above, with I212V, L320Q, R321P, E334L, M353L counted along it
T3 sequence (O48604 whole entry R146V/R147D/R148G/A164G/L320N/P321R/L353M): as the sequence (O48604 whole entry R146V/R147D/R148G/A164G/V212I/P321R/L334E/L353M) above, with I212V, L320N, E334L counted along it
T4 sequence (P93836 whole entry M335H): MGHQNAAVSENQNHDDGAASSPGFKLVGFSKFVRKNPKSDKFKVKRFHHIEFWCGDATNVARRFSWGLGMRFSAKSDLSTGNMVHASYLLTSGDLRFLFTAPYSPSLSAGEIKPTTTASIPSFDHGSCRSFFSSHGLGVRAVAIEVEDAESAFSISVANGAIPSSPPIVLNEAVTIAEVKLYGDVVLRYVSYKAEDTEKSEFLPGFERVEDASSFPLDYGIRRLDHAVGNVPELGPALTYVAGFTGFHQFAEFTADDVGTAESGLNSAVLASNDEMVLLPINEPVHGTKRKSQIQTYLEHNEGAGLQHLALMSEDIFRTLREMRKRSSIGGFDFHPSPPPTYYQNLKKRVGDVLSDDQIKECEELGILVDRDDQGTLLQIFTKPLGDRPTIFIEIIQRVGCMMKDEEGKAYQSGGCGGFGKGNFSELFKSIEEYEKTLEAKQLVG

Structure (SMILES)	Tolerance factor [1]	Normalized tolerance index (TI) [2]	Normalized tolerance index (TI) [3]	Normalized tolerance index (TI) [4]	Normalized tolerance index (TI) (Synechococcus HPPD)	Normalized tolerance index (TI) [5]
CC1=NOC(c2c(Cl)ccc(C3=C(O)c4ncccc4N(CC(F)F)S3(=O)=O)c2Cl)C1 (stereo not shown) [Inhibitor 1, 3-[2,4-dichloro-3-(3-methyl-4,5-dihydroisoxazol-5-yl)phenyl]-1-(2,2-difluoroethyl)-2,2-dioxo-pyrido[3,2-c]thiazin-4-ol]	1	2.4	3.4	2.5	2.2	–
O=S1(=O)C(c2c(Cl)cc(Cl)nc2Cl)=C(O)c2ncccc2N1CC(F)F [Inhibitor 2, 1-(2,2-difluoroethyl)-2,2-dioxo-3-(2,4,6-trichloro-3-pyridyl)pyrido[3,2-c]thiazin-4-ol]	1	3.8	1.8	3	–	0.2
